Experimental findings from ChEMBL document CHEMBL5705899 (Biochem J, 2014) are described below.

The target of the assay is T1, 3-phosphoinositide-dependent protein kinase 1 (Homo sapiens) (UniProt O15530).
T1 sequence (whole entry): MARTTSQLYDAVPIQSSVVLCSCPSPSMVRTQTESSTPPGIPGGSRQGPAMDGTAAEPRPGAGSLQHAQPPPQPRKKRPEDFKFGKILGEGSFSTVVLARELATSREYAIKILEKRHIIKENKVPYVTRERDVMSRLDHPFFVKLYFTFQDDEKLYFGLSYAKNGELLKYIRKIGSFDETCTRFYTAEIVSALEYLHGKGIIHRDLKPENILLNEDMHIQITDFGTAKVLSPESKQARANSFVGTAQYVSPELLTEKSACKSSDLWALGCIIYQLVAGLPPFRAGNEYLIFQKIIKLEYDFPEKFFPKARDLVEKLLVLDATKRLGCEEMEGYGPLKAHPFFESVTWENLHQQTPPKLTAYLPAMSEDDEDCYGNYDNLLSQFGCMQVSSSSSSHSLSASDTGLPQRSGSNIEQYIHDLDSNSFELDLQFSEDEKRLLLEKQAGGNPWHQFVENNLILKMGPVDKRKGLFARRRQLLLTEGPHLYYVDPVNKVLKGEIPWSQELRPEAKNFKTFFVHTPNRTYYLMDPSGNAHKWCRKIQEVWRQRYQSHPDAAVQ
Kind of assay: Inhibition of recombinant human His6-tagged PDK1 (52 to 556 residues) expressed in baculovirus infected Sf21 cells assessed as remaining activity at 1 uM using PDKtide as substrate incubated for 30 mins in presence of [gamma-33P]ATP by filter binding method relative to control.

As for `CC(C)(O)CNc1ncc(-c2ccnc(Nc3ccnc(Cl)c3)n2)c(CC2CC2)n1`, the Activity was determined as 105%.
